For orientation: IC50 means the concentration needed to halve the response being measured. Higher therefore signals weaker potency in that assay.

This passage reports IC50 results from US20210220328A1, “PYRROLE DERIVATIVES AS ACC INHIBITORS” (Almirall, S.A., priority 2017, published 2021).

The test system of the assay is immortalized human sebocyte cell line, SZ95. Nature of the assay: In vitro assay of inhibition of lipid synthesis. It is filed as cell-based. Particulars: 48 h, SZ95 sebocytes. The protocol: In Vitro Assay of Inhibition of Lipid Synthesis
To evaluate the inhibition of lipid synthesis, the immortalized human sebocyte cell line, SZ95 (stablished by Zouboulis, C. C. et al J Invest Dermatol 1999; 113:1011-20), was treated with arachidonic acid (AA) in presence or absence of compound. Lipids were detected by using a lipid sensing fluorophore.
Compounds were dissolved in dimethylsulfoxide (DMSO) 100%. Then the stocks were serial diluted 1/3 in DMSO 100%, and this battery of solutions were diluted 1/10 in culture medium, to minimize the percentage of the DMSO over cells.
10 k cells were plated in 384 well microtiter plates and incubated at 37° C. and 5% CO2 in DMEM/F12 supplemented with 10% FBS, 1.25 ng/ml of rhEGF and GA-1000 before of compound and stimulus addition. After 24 h, compounds dissolved in culture media were added over cells, diluting the solutions prepared 1/40 in the final volume of the assay. Then, cells and compounds were preincubated for 30 min at 37° C. and 5% CO2. After this prior incubation, the lipid synthesis was induced by 75 μM of AA final solution, preparing a solution 10× in culture media. Finally, SZ95 treated were incubated for 48 h at 37° C. and 5% CO2.
Neutral lipids were measured using AdipoRed™, purchased from LONZA. To do that, cells were washed with PBS and incubated with a solution of AdipoRed™ (final dilution 1/80 in PBS) for 30 min at room temperature. After the staining process, the fluorescence intensity (FI) was quantified using a fluorescence plate reader (excitation 485 nm; emission 535).
Activity of compounds were calculated as % of inhibition considering the maximal fluorescence for AA-stimulated cells and the minimum fluorescence for unstimulated cells as controls.

The mark [1] stands for this setting: lipid synthesis induced by 75 μM arachidonic acid, AdipoRed fluorescence, Table 1.
Where [2] appears, read: 75 μM arachidonic acid, AdipoRed, Table 2, finer classes for compounds with IC50 less than 250 nM.

Molecules are shown by their SMILES.

As for `CCCCCCCCCCCCSc1c[nH]c(C(=O)O)c1F` [Example 76, 4-(Dodecylthio)-3-fluoro-1H-pyrrole-2-carboxylic acid], the IC50 under setting [1] fell in the range of 1000 to 5000 nM. Consider `CCCCCCCCCOc1c[nH]c(C(=O)O)c1Cl` [Example 77, 3-chloro-4-(nonyloxy)-1H-pyrrole-2-carboxylic acid], for which the IC50 is 50 to 100 nM under setting [2] and less than 250 nM under setting [1].

Consider `CCCCCCCCCCOc1c[nH]c(C(=O)O)c1Cl` [Example 78, 3-Chloro-4-(decyloxy)-1H-pyrrole-2-carboxylic acid], for which the IC50 was less than 50 nM under setting [2] and less than 250 nM under setting [1]. As to `CCCCCCCCCCCOc1c[nH]c(C(=O)O)c1Cl` [Example 79, 3-Chloro-4-(undecyloxy)-1H-pyrrole-2-carboxylic acid], the IC50 was less than 50 nM under setting [2] and less than 250 nM under setting [1]. On to `CCCCCCCCCCCCOc1c[nH]c(C(=O)O)c1Cl` [Example 80, 3-Chloro-4-(dodecyloxy)-1H-pyrrole-2-carboxylic acid], for which the half-inhibitory concentration (IC50) runs as follows: under setting [2], less than 50 nM; under setting [1], less than 250 nM. Take `CCCCCCCCCCCCOc1c[nH]c(C(=O)OCC(F)(F)F)c1Cl` [Example 81, 2,2,2-Trifluoroethyl 3-chloro-4-(dodecyloxy)-1H-pyrrole-2-carboxylate]: the IC50 by setting is: under setting [2], 100 to 250 nM; under setting [1], less than 250 nM. The like results for `CCCCCCCCCCCCOc1c[nH]c(C(=O)OCCCCCCCCCO)c1Cl` [Example 82, 9-Hydroxynonyl 3-chloro-4-(dodecyloxy)-1H-pyrrole-2-carboxylate] were, in that order, 100 to 250 nM and less than 250 nM.

As to `CCCCCCCCCCCCOc1c[nH]c(C(=O)OCCOCCOCC)c1Cl` [Example 83, 2-(2-Ethoxyethoxy)ethyl 3-chloro-4-(dodecyloxy)-1H-pyrrole-2-carboxylate], the IC50 under setting [1] is 250 to 1000 nM. As for `CCCCCCCCCCCCOc1c[nH]c(C(=O)OCC(O)CO)c1Cl` (stereo not drawn) [Example 84, 2,3-Dihydroxypropyl 3-chloro-4-(dodecyloxy)-1H-pyrrole-2-carboxylate], the IC50 was 100 to 250 nM under setting [2] and less than 250 nM under setting [1]. The like results for `CCCCCCCCCCCCOc1c[nH]c(C(=O)OC(C)OC(=O)OC(C)C)c1Cl` (stereo not drawn) [Example 85, 1-((Isopropoxycarbonyl)oxy)ethyl 3-chloro-4-(dodecyloxy)-1H-pyrrole-2-carboxylate] were, in that order, less than 50 nM and less than 250 nM. The like results for `CCCCCCCCCCCCOc1c[nH]c(C(=O)OC(C)OC(=O)OCCOCCOCC)c1Cl` (stereo not drawn) [Example 86, 4-Oxo-3,5,8,11-tetraoxatridecan-2-yl 3-chloro-4-(dodecyloxy)-1H-pyrrole-2-carboxylate] were, in that order, less than 50 nM and less than 250 nM. For the compound `CCCCCCCCCCCCOc1c[nH]c(C(=O)OC(C)OC(=O)OCCCO)c1Cl` (stereo not drawn) [Example 87, 1-(((3-Hydroxypropoxy)carbonyl)oxy)ethyl 3-chloro-4-(dodecyloxy)-1H-pyrrole-2-carboxylate], the half-maximal inhibitory concentration (IC50) was less than 50 nM under setting [2] and less than 250 nM under setting [1]. As to `CCCCCCCCCCCCOc1c[nH]c(C(=O)OCc2oc(=O)oc2C)c1Cl` [Example 88, (5-Methyl-2-oxo-1,3-dioxol-4-yl)methyl 3-chloro-4-(dodecyloxy)-1H-pyrrole-2-carboxylate], the 50% inhibitory concentration (IC50) was less than 50 nM under setting [2] and less than 250 nM under setting [1]. As to `CCCCCCCCCCCCCOc1c[nH]c(C(=O)O)c1Cl` [Example 89, 3-Chloro-4-(tridecyloxy)-1H-pyrrole-2-carboxylic acid], the IC50 reads like this: under setting [2], less than 50 nM; under setting [1], less than 250 nM.

On to `CCCCCCCCCCCCCCOc1c[nH]c(C(=O)O)c1Cl` [Example 90, 3-Chloro-4-(tetradecyloxy)-1H-pyrrole-2-carboxylic acid], for which the IC50 is 50 to 100 nM under setting [2] and less than 250 nM under setting [1]. The compound `CCCCCCCCCCCCCCC(=O)c1c[nH]c(C(=O)O)c1F` [Example 91, 3-Fluoro-4-pentadecanoyl-1H-pyrrole-2-carboxylic acid] showed an IC50 under setting [1] of 1000 to 5000 nM. Take `CCOCCCCCCCCCCCCc1c[nH]c(C(=O)O)c1F` [Example 92, 4-(12-Ethoxydodecyl)-3-fluoro-1H-pyrrole-2-carboxylic acid]: the IC50 by setting is: under setting [2], less than 50 nM; under setting [1], less than 250 nM.

As to `CCCCCCCCCCCC(F)Cc1c[nH]c(C(=O)O)c1F` (stereo not drawn) [Example 93, 3-Fluoro-4-(2-fluorotridecyl)-1H-pyrrole-2-carboxylic acid], the IC50 was less than 50 nM under setting [2] and less than 250 nM under setting [1]. As for `CCCCCCCCCCCC(F)(F)Cc1c[nH]c(C(=O)O)c1F` [Example 94, 4-(2,2-Difluorotridecyl)-3-fluoro-1H-pyrrole-2-carboxylic acid], the IC50 is 100 to 250 nM under setting [2] and less than 250 nM under setting [1]. Consider `CCCCCCCCCC(C)(C)CCc1c[nH]c(C(=O)O)c1F` [Example 95, 4-(3,3-Dimethyldodecyl)-3-fluoro-1H-pyrrole-2-carboxylic acid], for which the IC50 by setting is: under setting [2], less than 50 nM; under setting [1], less than 250 nM. On to `CCCCCCCCCCCC(C)(C)COc1c[nH]c(C(=O)O)c1F` [Example 96, 4-((2,2-Dimethyltridecyl)oxy)-3-fluoro-1H-pyrrole-2-carboxylic acid], for which the IC50 by setting is: under setting [2], 50 to 100 nM; under setting [1], less than 250 nM.

`CCCCCCCCCCCCC(F)(F)COc1c[nH]c(C(=O)O)c1F` [Example 97, 4-((2,2-Difluorotetradecyl)oxy)-3-fluoro-1H-pyrrole-2-carboxylic acid] displayed an IC50 under setting [2] of 100 to 250 nM and an IC50 under setting [1] of less than 250 nM. The compound `CCCCCCCCCC(F)(F)COc1c[nH]c(C(=O)O)c1F` [Example 98, 4-((2,2-Difluoroundecyl)oxy)-3-fluoro-1H-pyrrole-2-carboxylic acid] returned an IC50 under setting [1] of 250 to 1000 nM. For the compound `CCCCCCCCCCCCC(F)COc1c[nH]c(C(=O)O)c1Cl` (stereo not drawn) [Example 99, 3-Chloro-4-((2-fluorotetradecyl)oxy)-1H-pyrrole-2-carboxylic acid], the concentration for half-maximal inhibition (IC50) was 100 to 250 nM under setting [2] and less than 250 nM under setting [1].

For `CCOCCCCCCCCCOc1c[nH]c(C(=O)O)c1Cl` [Example 100, 3-Chloro-4-((9-ethoxynonyl)oxy)-1H-pyrrole-2-carboxylic acid], the half-maximal inhibitory concentration (IC50) under setting [1] was in the range of 250 to 1000 nM. In the case of `CCCCCCCCCCCCCc1c[nH]c(C(=O)O)c1C` [Example 101, 3-Methyl-4-tridecyl-1H-pyrrole-2-carboxylic acid], the IC50 under setting [1] fell in the range of 1000 to 5000 nM. As for `CCCCCCCCCCC(C)(C)Cc1c[nH]c(C(=O)O)c1F` [Example 102, 4-(2,2-Dimethyldodecyl)-3-fluoro-1H-pyrrole-2-carboxylic acid], the IC50 is, setting by setting: under setting [2], less than 50 nM; under setting [1], less than 250 nM. Turning to `CCCCCCCCCCCOc1c[nH]c(C(=O)OCC(F)(F)F)c1F` [Example 103, 2,2,2-Trifluoroethyl 3-fluoro-4-(undecyloxy)-1H-pyrrole-2-carboxylate], the IC50 was less than 50 nM under setting [2] and less than 250 nM under setting [1]. The like results for `CCCCCCCCCCCOc1c[nH]c(C(=O)OCCOCCOCC)c1F` [Example 104, 2-(2-Ethoxyethoxy)ethyl 3-fluoro-4-(undecyloxy)-1H-pyrrole-2-carboxylate] were, in that order, 100 to 250 nM and less than 250 nM.

As for `CCCCCCCCCCCOc1c[nH]c(C(=O)OC(C)OC(=O)OC(C)C)c1F` (stereo not drawn) [Example 105, 1-((Isopropoxycarbonyl)oxy)ethyl 3-fluoro-4-(undecyloxy)-1H-pyrrole-2-carboxylate], the IC50 is, setting by setting: under setting [2], less than 50 nM; under setting [1], less than 250 nM.
